Data taken from patent US20210379066A1, “COMBINATIONS OF POSITIVE ALLOSTERIC MODULATORS AND NICOTINIC ACETYLCHOLINE RECEPTOR AGONISTS FOR TREATING OCULAR CONDITIONS” (Oyster Point Pharma, Inc., priority 2018, published 2021).
Entries after “also recorded” stand apart in the source; their conditions may differ.

Key:
[1] = molecular target: T1, human alpha4beta2 nAChRs (Homo sapiens, UniProt P17787+P43681); assay: Positive allosteric modulation of agonist-evoked currents, two-electrode voltage clamp in Xenopus oocytes (Example 1); format: cell-based
T1 construct: expressed in transfected cells; host or cells: Xenopus laevis oocytes (cDNA injection)
T1 sequence (P43681 29-627 limits assumed): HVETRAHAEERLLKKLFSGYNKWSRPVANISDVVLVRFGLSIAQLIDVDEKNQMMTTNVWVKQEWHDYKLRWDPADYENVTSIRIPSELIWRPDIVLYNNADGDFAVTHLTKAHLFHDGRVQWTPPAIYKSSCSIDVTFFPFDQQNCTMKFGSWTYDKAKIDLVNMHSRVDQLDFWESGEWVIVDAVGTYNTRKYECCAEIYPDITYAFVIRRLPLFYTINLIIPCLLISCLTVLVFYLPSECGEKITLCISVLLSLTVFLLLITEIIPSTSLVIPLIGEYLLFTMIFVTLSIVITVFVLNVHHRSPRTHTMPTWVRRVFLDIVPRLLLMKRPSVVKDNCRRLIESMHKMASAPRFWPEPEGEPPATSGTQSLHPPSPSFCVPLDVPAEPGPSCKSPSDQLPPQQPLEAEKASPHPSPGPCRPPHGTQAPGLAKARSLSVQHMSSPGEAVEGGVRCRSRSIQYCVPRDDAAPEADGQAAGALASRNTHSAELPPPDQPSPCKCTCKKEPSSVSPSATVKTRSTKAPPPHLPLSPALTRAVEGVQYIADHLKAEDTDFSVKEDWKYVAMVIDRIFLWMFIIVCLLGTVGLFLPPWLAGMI
T1 sequence (P17787 26-502): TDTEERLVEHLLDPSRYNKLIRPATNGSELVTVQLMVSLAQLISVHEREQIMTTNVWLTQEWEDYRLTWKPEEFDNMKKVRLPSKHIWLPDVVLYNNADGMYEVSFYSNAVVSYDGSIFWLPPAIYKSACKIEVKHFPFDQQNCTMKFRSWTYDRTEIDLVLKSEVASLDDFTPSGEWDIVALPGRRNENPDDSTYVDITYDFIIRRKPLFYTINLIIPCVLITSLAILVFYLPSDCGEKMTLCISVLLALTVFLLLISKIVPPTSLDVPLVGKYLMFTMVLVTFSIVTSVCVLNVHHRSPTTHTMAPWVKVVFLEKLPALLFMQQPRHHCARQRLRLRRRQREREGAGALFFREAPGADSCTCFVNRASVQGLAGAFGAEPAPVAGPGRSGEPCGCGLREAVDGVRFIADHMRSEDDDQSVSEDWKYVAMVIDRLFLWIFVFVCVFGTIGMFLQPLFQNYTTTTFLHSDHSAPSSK
Protocol: • Acetylcholine chloride • 100 mM stock solution in bi-distilled water 1.3 Test system • Apparatus: Automated Injection and Recording Apparatus, HiQScreen • Species of donor animals: Xenopus • Strain of animals: Laevis • Origin (supplier) of animals: HiQScreen Sàrl, Geneva • Body Weight of animals: 150 g to 300 g • Animal maintenance 3 to 5 per vivarium • Room temperature: 20-22° C. • Lighting times: Vivarium were exposed to daylight with additional artificial lighting (6 am-8 pm in summer; 8 am-7 pm in winter). • Food: Food pellets, ad libitum • Source of biological material • and isolation procedure: Abdominal incision to remove ovaries • Experimental conditions in Oocyte incubation: Barth solution containing in mM NaCl 88, • vitro: […] OR2 medium containing in mM: […] Two-electrode voltage clamp, using proprietary automated system equipped with a Geneclamp amplifier (Axon Instrument, Foster City, Calif., USA), or HiClamp (Multichannel Systems, Germany) Abbreviations: Ach, Acetylcholine; nAChR, Nicotinic acetylcholine receptor; SEM, Standard error of the mean; PAM, Positive allosteric modulator All experiments were carried out at human nAChRs expressed in Xenopus oocytes using the method of cDNA expression. Xenopus oocytes were prepared and injected using standard procedures. Briefly, ovaries were harvested from Xenopus Laevis females that have been deeply anesthetized by cooling at 4° C. and Tricaine methanesulfonate (MS-222 at a concentration of 150 mg/L) in sodium bicarbonate (300 mg/L). Once anesthetized the animal was decapitated and pithed following the rules of animal rights from the Geneva canton. […] All recordings were performed at 18° C. and cells superfused with OR2 medium containing in mM: […] Currents evoked by ACh or other agonists were recorded using an automated process equipped with standard two-electrode voltage-clamp configuration (TEVC). Data were captured and analyzed using a HiQScreen proprietary data acquisition and analysis software running under Matlab (Mathworks Inc.). […] Compounds were dissolved in OR2 as stock solution (1 mM) and the final dilution to the desired concentration was made on the day of the experiment. Injections of cDNAs encoding for the human alpha4beta2, were performed in at least 95 oocytes were performed using a proprietary automated injection device (Hogg et al., J. Neurosci. Methods, 2008) and receptor expression examined at least two days later. Oocytes were poked with two electrodes and their membrane potential maintained, unless indicated, at −80 mV throughout the experiment. A protocol to determine the allosteric modulation at the alpha4beta2 nAChRs in the oocytes expressing the receptor was developed. Oocytes expressing alpha4beta2 nAChRs were exposed to increasing concentrations of ACh while the response was evaluated. This was repeated with the addition of a fixed concentration of the allosteric modulator. The current evoked from the exposure to the agonist with the modulator was recorded and compared to currents evoked in the absence of the modulator. To assess the effects of positive allosteric modulators (Br-PBTC and NS-9283) a protocol of determination of the concentration activation curve in absence and presence of the PAM was designed. […] To assess the positive allosteric modulator effects of NS-9283 at the compound 1 hemi-galactarate dihydrate the same experimental protocol was conducted using 1 μM of the modulator. […] To further evaluate the PAM effects, the modulation was measured either as a first application and compared versus the subsequent agonist evoked response or, vice versa, by first exposing the cell to the agonist alone and then to the PAM and the agonist applied during a sustained PAM exposure. […] The same experiment was then conducted for compound 1 hemi-galactarate dihydrate as the agonist and Br-PBTC as the modulator or NS-9283 as the modulator.

[2] = molecular target: T1, human alpha4beta2 nAChRs; assay: Desensitization by sustained (1 hour) agonist exposure and recovery, without and with PAM, Xenopus oocytes (Example 1); format: cell-based
[3] = presence vs absence of 1 μM PAM

dependence of potentiation on the order of agonist and PAM application ([1]; agonist compound 1 hemi-galactarate dihydrate): independent on the exposure protocol
Compound: O=C(N[C@@H]1CCCNC1)c1cc2cccc(Br)c2s1 [Br-PBTC, (R)-7-bromo-N-(piperidin-3-yl)benzo[b]thiophene-2-carboxamide]
positive allosteric modulator activity in the presence of compound 1 hemi-galactarate dihydrate ([1]; 1 μM PAM): acts as a positive modulator; also recorded: potentiate the agonistic activity
maximal current evoked by compound 1 hemi-galactarate dihydrate [1, 3]: increase of the maximal evoked current; also recorded: increase of the amplitude of the current
shift of the concentration activation curve to compound 1 hemi-galactarate dihydrate [1, 3]: significant shift to the left; also recorded: shifted to the left
effect of PAM on recovery from varenicline tartrate desensitization ([2]; 300 μM varenicline tartrate 1 hour, 1 μM PAM, wash of 3 hours): almost complete recovery within 3 hours; also recorded: almost full recovery; also recorded: partially reversed
effect of PAM on amplitude of the current evoked by varenicline tartrate ([2]; 300 μM varenicline tartrate, 1 μM PAM): largely enhanced
effect of PAM on profile of compound 1 hemi-galactarate dihydrate desensitization and recovery ([2]; 1 mM agonist, co-application of 1 μM modulator): minimal effect
